# From ChEMBL document CHEMBL3603836, “Hybrid pyrimidine alkynyls inhibit the clinically resistance related Bcr-Abl(T315I) mutant” (Bioorg Med Chem Lett, 2015)
# pIC50: −log10 of the molar value. Calls of active or inactive are those of the source. The calls are words filed in the database; no cut-off is given here.
# Experiments:
# [1] = system: Tyrosine-protein kinase ABL1 (Mus musculus), P00520 [T315I]; test: Inhibition of Bcr-Abl T315I mutant in mouse BA/F3 cells assessed as reduction of STAT5 phosphorylation at 4 to 500 nM after 4 hrs by Western blot analysis; type: cell-based; details: BaF3
# Chain of Tyrosine-protein kinase ABL1 (Mus musculus), P00520 [T315I] (P00520 whole entry T315I): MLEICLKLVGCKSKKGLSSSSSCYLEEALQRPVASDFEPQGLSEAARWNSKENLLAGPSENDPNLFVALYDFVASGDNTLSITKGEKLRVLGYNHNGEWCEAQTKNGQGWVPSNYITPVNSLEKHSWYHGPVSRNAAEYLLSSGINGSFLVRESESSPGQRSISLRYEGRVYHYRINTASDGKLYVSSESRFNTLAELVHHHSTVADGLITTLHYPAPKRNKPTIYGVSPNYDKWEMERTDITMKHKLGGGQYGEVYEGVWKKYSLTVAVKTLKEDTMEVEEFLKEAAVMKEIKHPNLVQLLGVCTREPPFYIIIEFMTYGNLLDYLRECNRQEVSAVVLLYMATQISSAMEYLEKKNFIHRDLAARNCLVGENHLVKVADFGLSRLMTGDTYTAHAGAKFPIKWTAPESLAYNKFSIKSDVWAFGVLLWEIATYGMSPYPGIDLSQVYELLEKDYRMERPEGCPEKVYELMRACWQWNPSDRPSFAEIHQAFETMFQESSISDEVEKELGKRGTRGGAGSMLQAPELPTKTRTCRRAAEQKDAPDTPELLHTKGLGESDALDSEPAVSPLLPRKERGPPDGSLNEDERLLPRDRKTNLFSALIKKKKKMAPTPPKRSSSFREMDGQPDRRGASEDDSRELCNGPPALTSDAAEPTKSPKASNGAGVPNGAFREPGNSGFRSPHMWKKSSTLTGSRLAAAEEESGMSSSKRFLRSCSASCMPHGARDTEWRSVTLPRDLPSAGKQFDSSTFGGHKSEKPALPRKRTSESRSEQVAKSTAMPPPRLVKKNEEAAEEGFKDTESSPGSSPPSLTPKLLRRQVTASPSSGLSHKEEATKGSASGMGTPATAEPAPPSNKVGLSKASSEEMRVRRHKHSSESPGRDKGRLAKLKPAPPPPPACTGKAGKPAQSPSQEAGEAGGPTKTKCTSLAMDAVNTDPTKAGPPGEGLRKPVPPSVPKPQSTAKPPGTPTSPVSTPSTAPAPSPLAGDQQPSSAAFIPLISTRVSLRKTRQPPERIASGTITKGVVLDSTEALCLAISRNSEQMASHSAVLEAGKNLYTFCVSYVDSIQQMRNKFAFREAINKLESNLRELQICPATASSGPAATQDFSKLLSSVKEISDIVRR
# [2] = system: K562; test: Induction of apoptosis in human K562 cells expressing wild type Bcr-Abl assessed as early apoptotic cells at 100 nM after 24 hrs using annexin-V/7-AAD staining by FACS analysis (reference value: 7.3%); type: functional
# [3] = system: BaF3; test: Induction of apoptosis in mouse BA/F3 cells expressing Bcr-Abl T315I mutant assessed as late apoptotic cells after 24 hrs using annexin-V/7-AAD staining by FACS analysis; type: functional, cell-based
# [4] = Ratio of Cmax in Sprague-Dawley rat at 25 mg/kg, po to IC50 for Bcr-Abl T315I mutant (unknown origin); type: ADME, organism-based; details: in vivo
# [5] = system: BaF3; test: Induction of apoptosis in mouse BA/F3 cells expressing Bcr-Abl T315I mutant assessed as early apoptotic cells at 100 nM after 24 hrs using annexin-V/7-AAD staining by FACS analysis (reference value: 4.6%); type: functional
# [6] = system: K562; test: Induction of apoptosis in human K562 cells expressing wild type Bcr-Abl assessed as late apoptotic cells after 24 hrs using annexin-V/7-AAD staining by FACS analysis; type: functional, cell-based
# [7] = system: BaF3; test: Antitumor activity against mouse BA/F3 cells expressing Bcr-Abl T315I mutant allografted in po dosed mouse assessed as tumor growth inhibition administered qd for 16 days; type: functional, organism-based
# [8] = system: Tyrosine-protein kinase ABL1 (Mus musculus), P00520 [T315I]; test: Inhibition of Bcr-Abl T315I mutant in mouse BA/F3 cells assessed as total protein level of CRKL at 4 to 500 nM after 4 hrs by Western blot analysis; type: cell-based; details: BaF3
# [9] = system: BaF3; test: Induction of apoptosis in mouse BA/F3 cells expressing Bcr-Abl T315I mutant assessed as early apoptotic cells at 500 nM after 24 hrs using annexin-V/7-AAD staining by FACS analysis (reference value: 4.6%); type: functional
# [10] = system: Rattus norvegicus; test: AUC (0 to infinity) in Sprague-Dawley rat at 10 mg/kg, iv; type: ADME, organism-based; set-up: dose 10 mg/kg, time infinity, route intravenous; details: in vivo
# [11] = system: BaF3; test: Antitumor activity against mouse BA/F3 cells expressing Bcr-Abl T315I mutant allografted in mouse assessed as tumor regression at 30 mg/kg, qd for 16 days; type: functional, organism-based
# [12] = system: Tyrosine-protein kinase ABL1 (Mus musculus), P00520 [T315I]; test: Inhibition of Bcr-Abl T315I mutant phosphorylation in mouse BA/F3 cells after 4 hrs by Western blot analysis; type: cell-based; details: BaF3
# [13] = system: K562; test: Cell cycle arrest in human K562 cells expressing wild type Bcr-Abl assessed as accumulation at G0/G1 phase at 20 nM after 24 hrs using propidium iodide staining by flow cytometry (reference value: 64.03%); type: functional
# [14] = Cell cycle arrest in mouse BA/F3 cells expressing Bcr-Abl T315I mutant assessed as accumulation at G0/G1 phase at 20 nM after 24 hrs using propidium iodide staining by flow cytometry (reference value: 51.92%); type: functional, cell-based; details: BaF3
# [15] = system: Tyrosine-protein kinase ABL1 (Mus musculus), P00520 [T315I]; test: Inhibition of Bcr-Abl T315I mutant in mouse BA/F3 cells assessed as reduction of CRKL phosphorylation at 4 to 500 nM after 4 hrs by Western blot analysis; type: cell-based; details: BaF3
# [16] = system: K562; test: Cell cycle arrest in human K562 cells expressing wild type Bcr-Abl assessed as accumulation at G0/G1 phase after 24 hrs using propidium iodide staining by flow cytometry; type: functional, cell-based
# [17] = cells; details: Mus musculus, BaF3, 72 h
# [18] = Cell cycle arrest in mouse BA/F3 cells expressing Bcr-Abl T315I mutant assessed as accumulation at G0/G1 phase at 4 nM after 24 hrs using propidium iodide staining by flow cytometry (reference value: 51.92%); type: functional, cell-based; details: BaF3
# [19] = system: Tyrosine-protein kinase ABL1 (Mus musculus), P00520 [T315I]; test: Inhibition of Bcr-Abl T315I mutant in mouse BA/F3 cells assessed as total protein level of STAT5 at 4 to 500 nM after 4 hrs by Western blot analysis; type: cell-based; details: BaF3
structure (smiles),measurement,setting,value
Cc1cn(-c2cc(NC(=O)c3ccc(C)c(C#Cc4cnc(NC5CC5)nc4)c3)cc(C(F)(F)F)c2)cn1,inhibition,[1],Active
same,Activity,[2],73.6%
same,Activity,[3],Dose-dependent effect
same,Ratio,[4],1333
same,Activity,[5],7.1%
same,Activity,[6],Dose-dependent effect
same,growth inhibition (GI),[7],Dose-dependent effect
same,inhibition,[8],inactive
same,Activity,[9],10.2%
same,AUC,[10],285187 µg/L/h
same,Activity,[11],Active
same,inhibition,[12],Dose-dependent effect
same,Activity,[13],87.03%
same,Activity,[14],58.9%
same,inhibition,[15],Active
same,Activity,[16],Dose-dependent effect
same,pIC50,[17],7.30
same,Activity,[18],52.4%
same,inhibition,[19],inactive
